Test results taken from BindingDB's records for doi:10.1021/jm950717a (Bristol-Myers Squibb, 1996).

target: T1, Dimer of Gag-Pol polyprotein [489-587] (Human immunodeficiency virus 1, UniProt P12497); experiment: Protease Inhibition Assay; conditions: pH 5.5; 37 °C
T1 construct: 489-587
Procedure: IC50 values are determined by inhibition of the cleavage of the peptidic substrate [V-S-Q-N-(beta-naphthylalanine)-P-I-V]. The IC50 value represents the concentration of inhibitor required to inhibit cleavage of substrate by 50%. The assay is performed by addition of purified enzyme to a mixture of inhibitor and the above substrate at pH 5.5. The reaction medium is incubated for 30 min at 37 °C followed by quenching with H3-PO4 and then analyzed by reverse phase HPLC UV (220 nm) detection.

`CC(C)(C)OC(=O)N[C@@H](Cc1ccccc1)[C@H](O)CNC[C@@H](O)[C@H](Cc1ccc(OCCN2CCOCC2)cc1)NC(=O)OC(C)(C)C` [tert-butyl N-[(2S,3R)-4-{[(2R,3S)-3-{[(tert-butoxy)carbonyl]amino}-2-hydroxy-4-{4-[2-(morpholin-4-yl)ethoxy]phenyl}butyl]amino}-3-hydroxy-1-phenylbutan-2-yl]carbamate] and `CC(C)(C)OC(=O)N[C@@H](Cc1ccccc1)[C@H](O)CNC[C@@H](O)[C@H](Cc1ccc(OCC(=O)N2CCOCC2)cc1)NC(=O)OC(C)(C)C` [tert-butyl N-[(2S,3R)-4-{[(2R,3S)-3-{[(tert-butoxy)carbonyl]amino}-2-hydroxy-4-{4-[2-(morpholin-4-yl)-2-oxoethoxy]phenyl}butyl]amino}-3-hydroxy-1-phenylbutan-2-yl]carbamate] are the same in IC50: 100 nM for the first, 100 nM for the second.

In the case of `CC(C)(C)OC(=O)N[C@@H](Cc1ccccc1)[C@H](O)CNC[C@@H](O)[C@H](Cc1ccc(OCC(O)c2cccnc2)cc1)NC(=O)OC(C)(C)C` (stereo partly drawn) [[1S-[1R*,2S*(2S*,3R*)]]-[3-[[3-[[(1,1-Dimethylethoxy)-carbonyl]amino]-2-hydroxy-4-[4-[2-hydroxy-2-(3-pyridinyl)ethoxy]phenyl]butyl]amino]-2-hydroxy-1-], the IC50 is reported as 110 nM.
